Consider 6 compounds from patent publication US5612319A, “Postexposure prevention of HIV infection or seroconversion” (Medivir AB, priority 1994, dated 1997).

In series [1] the test system is SIV. The settings on record: prophylactically, i.e. pre-exposure administered; cited from earlier work.
The test system of series [2] is lentivirus infections with HIV or SIV. The settings on record: administered prophylactically, prior to exposure to HIV or SIV; cited from earlier work.
In series [3] the test system is HIV. The settings on record: HIV-infected individuals; cited from earlier work.
The subject of a further series is HIV-1, HIV-2 or SIV. The settings on record: until shortly after "treatment" is concluded; cited from earlier work.
Series [4] relates to HIV. Conditions: rapid and sustained postexposure administration of large doses; cited from earlier work.
A short description of series [5]: In vivo simian experiments, short term toxicity. Conditions: 30 mg/kg/day.
Series [6] relates to SIV. Nature of the series: Postexposure prevention of SIV infection in macaque monkeys (Example 2, Table 1). Conditions: for Detected during 30 days post virus inoculation: SIV Ag / Detected during 30 days post virus inoculation: SIV-2 / SIV antibody detected during 30 days post inoculation: 10 mg/kg s.c. three times per day. The format is in vivo. Here is the method:
Inoculation: The control and test animals, 2 year old macaque monkeys were inoculated […] with either a moderate (10 monkey infectious doses MID50, as determined by Bottiger et al Antiviral Chemistry and Chemotherapy 1992;3:269-271) or a high (100 MID50) dose preparation of SIV in phosphate buffer, as listed in Table 1 below.
One or three hours after i.v. inoculation with SIV, paired test animals were injected subcutaneously with 10 mg/kg of the preparation of Example 1, repeated three times per day for 1 day or 3 days as listed in table 1. Blood samples were extracted from the test and control animals on days 0, 17, 23 and 30 for determination of SIV antibody, SIV p26 antigen and presence of infective virus. The methods have been described by Bottiger et al, AIDS Res Hum Retroviruses 1992;7:1235-1238.

The test system of a further series is MT4 cells. The experiment in a line: Cell culture tolerance in MT4 cells. The format is cell-based, human. Conditions: cell culture results.
Series [7] in a line: Cell culture tolerance in MT4 cells. In kind it is cell-based, human. The settings on record: human; cell culture, MT4 cells; read-out: ID50 in MT4 cells.
For series [8], the system named is SIV. The settings on record: administered from 8 hours prior to virus inoculation; cited from earlier work.
The mark [9] stands for this setting: 10 MID50, treatment start 1 hour post inoculation, duration 1 day, monkeys 45, 46.
The mark [10] stands for this setting: 10 MID50, treatment start 1 hour post inoculation, duration 3 days, monkeys 48, 49.
Where [11] appears, read: 10 MID50, treatment start 3 hours post inoculation, duration 3 days, monkeys 54, 57.
[12] abbreviates: 100 MID50, treatment start 1 hour post inoculation, duration 3 days, monkeys 53, 58.

Molecules are shown by their SMILES. ≈ marks a conversion by molar mass, not a printed value.

Take `Nc1ccn([C@H]2CC[C@@H](CO)O2)c(=O)n1` [ddC]: the “prevention of infection with SIV” value in the series on SIV [1] is “inability to prevent infection with SIV”.

For `O=C(O)P(=O)(O)O` [PFA], the “prevention of infection with SIV” value in the series on SIV [1] is on record as “inability to prevent infection with SIV”.

With `Cc1cn([C@H]2C[C@H](N=[N+]=[N-])[C@@H](CO)O2)c(=O)[nH]c1=O` [AZT, zidovudine], the “effect on pattern of lentivirus infections” value in series [2] was “may alter the pattern of lentivirus infections”. Further, the “prevention of infection with SIV” value in the series on SIV [1] is on record as “inability to prevent infection with SIV”. Besides, the “suppression of AIDS development or reducing viral loads” value in the series on HIV [3] is “clinically significant action”. Besides, the delay of seroconversion result with HIV-1, HIV-2 or SIV is “at most appear to delay seroconversion”. For the same compound, in the series with HIV [4], the “published accounts of seroconversion after accidental exposure to HIV” value is recorded as 13 published accounts.

`Nc1ccn([C@H]2C[C@H](CO)[C@@H](CO)O2)c(=O)n1` [Example 1, 1-[2',3'-dideoxy-3'-C-(hydroxymethyl)-β-D-erythro-pentofuranosyl]-cytosine]: the “toxicity short term in simian experiments” value in series [5] is reported as “no detectable toxicity”. In addition, the “Detected during 30 days post virus inoculation: SIV Ag” value with SIV [6] (setting [9]), in the series with SIV [6] (setting [10]), in the series with SIV [6] (setting [11]) and in the series with SIV [6] (setting [12]) was “-” throughout. Further, the “Detected during 30 days post virus inoculation: SIV-2” value in the series on SIV [6] (setting [9]), in the series with SIV [6] (setting [10]), in the series on SIV [6] (setting [11]) and in the series with SIV [6] (setting [12]) was “-” each time. Further, the “SIV antibody detected during 30 days post inoculation” value with SIV [6] (setting [9]), in the series on SIV [6] (setting [10]), with SIV [6] (setting [11]) and with SIV [6] (setting [12]) was “-” in each case. Moreover, the “protection from 100 infectious doses of SIV” value in the series on SIV [6] (3 days treatment, 100 infectious doses, animals 53 and 58) is given as “protected the test animals from the very high dose of 100 infectious doses of SIV”. Further, the “prevention of infection establishing itself in the test animals” value in the series on SIV [6] (all test animals, viral antigen, antibody or virus culture in blood) was “prevented the infection establishing itself in the test animals”. Besides, the “SIV antibody or SIV antigen in test animals” value in the series with SIV [6] (each test animal, 30 day period monitored) is on record as “free from detectable SIV antibody or SIV antigen”. The “infectious virus cultivated from blood samples” value in the series on SIV [6] (each test animal, day 30) is “infectious virus could not be cultivated”. In addition, the “protection from 10 infectious doses of SIV” value in the series with SIV [6] (single day of treatment, 10 infectious doses) is on record as “protected the test animals from 10 infectious doses of SIV”. Besides, in the series with MT4 cells, the “tolerance by human cells” value was “generally well tolerated”. In addition, the CC50 in series [7] is ~45 µg/mL (≈ 187 µM).

Turning to `Cc1cn([C@H]2C=C[C@@H](CO)O2)c(=O)[nH]c1=O` [d4T], the “prevention of infection with SIV” value in the series on SIV [1] is on record as “inability to prevent infection with SIV”.

Consider `Cc1cn([C@H]2C[C@H](F)[C@@H](CO)O2)c(=O)[nH]c1=O` [FLT, 3'-fluorothymidine], for which the “protection against SIV” value in the series on SIV [8] is recorded as “may provide some protection against SIV”.
